# According to EP0313094A2, “Anticancer agent and reagent for obtaining revertants” (MEIJI SEIKA KAISHA LTD., priority 1987, dated 1989):
# Entries after “also recorded” stand apart in the source; their conditions may differ.
# Legend:
# Type in all cases: cell-based
# [1] = test system: normal NIH3T3 cells; experiment: Morphology of normal NIH3T3 cells incubated with the compound; conditions: 500 µg/mℓ; sixth day of incubation
# Method: (§1) Cell incubation was carried out under the same conditions as those described in Example 1 except that SF-1346 was added to the culture medium so as to give a final concentration of 500 µg/mℓ. […] Namely, these surviving revertants formed flat foci.
# [2] = test system: NIH3T3 cells transformed with activated c-Ki-ras, N-ras, ret, hst and raf oncogenes; experiment: Growth inhibition of NIH3T3 cells transformed with other oncogenes; conditions: final concentration 500 µg/mℓ
# Method: (§2) SF-1346 were added to the culture medium of NIH3T3 cells transformed with activated c-Ki-ras, N-ras, ret, hst and raf oncogenes in the same manner as in Example 1 so as to give a final concentration of 500 µg/mℓ.
# [3] = test system: transformed NIH3T3 cells; experiment: Acquirement of revertants from transformed NIH3T3 cells (morphology, inverted microscope); conditions: 500 µg/mℓ; sixth day of incubation; inverted microscope 100 × magnification
# Method: as §1
# Then, the revertants were isolated by selecting cell clusters forming flat foci by […]. After repeating this procedure several times, the desired revertants were isolated.
# [4] = test system: SRY1 cells which had been obtained by cancerizing rat fibroblast 3Y1 cells through transfection with an src oncogene; experiment: Growth inhibition of SRY1 cells; conditions: src-transfected rat fibroblast 3Y1 cells; Example 2
# [5] = test system: NIH3T3 cells transformed by an activated melanoma c-H-ras oncogene; experiment: Growth inhibition of transformed NIH3T3 cells (cell counting); conditions: 500 µg/mℓ SF-1346, 37°C, Dulbecco-modified Eagle's medium, 5% bovine serum, initial 1 × 10⁴ cell/mℓ
# Method: (§3) NIH3T3 cells transformed by an activated melanoma c-H-ras oncogene and normal NIH3T3 cells were incubated at 37°C each in a Dulbecco-modified Eagle's medium containing 5% (v/v) of bovine serum.
# (§4) Each medium was adjusted to have an initial cell density of 1 × 10⁴ cell/mℓ and contain SF-1346 at a concentration of 200 µg/mℓ or 500 µg/mℓ. The cells therein were counted with the lapse of time from the first day to the fifth day and from the fourth day to the seventh day of the incubation.
# [6] = test system: PSN-1 cells derived from human pancreatic cancer; experiment: Inhibition of the growth of PSN-1 cells and acquirement of revertants
# Method: PSN-1 cells were incubated at 37°C in RPMI 1640 media each containing 10% (v/v) fetal calf serum and SF-1346 at a concentration of 500 µg/mℓ or 200 µg/mℓ. An initial cell density was adjusted to 1 × 10⁴ cells/mℓ. The cells were counted with the lapse of time from the fourth day to the eighth day after the initiation of the incubation.
# [7] = test system: normal NIH3T3 cells; experiment: Growth inhibition of normal NIH3T3 cells (cell counting); conditions: 500 µg/mℓ SF-1346; same culture conditions
# Method: as §3, §4, §2
smiles,measurement,setting,value
"N[C@@H](Cc1ccc(O)cn1)C(=O)O [SF-1346, L-β-(5-hydroxy-2-pyridyl)alanine]",morphological change of normal cells,[1],no morphological change was observed
same,growth of the transformed NIH3T3 cells,[2],inhibited the growth
same,morphological observation of transformed cells (revertant formation),[3],the transformed cells partially died and the selectively surviving cells were morphologically similar to the normal NIH3T3 cells
same,growth of SRY1 cells,[4],completely inhibited the growth
same,growth of the transformed NIH3T3 cells,[5],inhibit the growth; also recorded: selectively inhibits the growth
same,cells converted into flat revertants,"[6]; 200 µg/mℓ, PSN-1 cells",85%
same,cells killed,"[6]; 200 µg/mℓ, PSN-1 cells",15%
same,growth of the cancer cells,"[6]; 200 µg/mℓ, PSN-1 cells",completely inhibiting the growth
same,killing of PSN-1 cells,"[6]; 500 µg/mℓ, RPMI 1640, 10% fetal calf serum, counted fourth to eighth day",completely killed
same,growth of the normal NIH3T3 cells,[7],did not inhibit; also recorded: does not inhibit the growth
